Patent publication US10160755B2 (Plexxikon Inc., priority 2015, dated 2018)

How the values were obtained:
FLT3-ITD = target: T1, FLT3-ITD (Homo sapiens, UniProt P36888); assay: FLT3-ITD biochemical kinase assay (AlphaScreen)
T1 construct: FLT3-ITD; Invitrogen #PV6190
T1 sequence (P36888 1-993): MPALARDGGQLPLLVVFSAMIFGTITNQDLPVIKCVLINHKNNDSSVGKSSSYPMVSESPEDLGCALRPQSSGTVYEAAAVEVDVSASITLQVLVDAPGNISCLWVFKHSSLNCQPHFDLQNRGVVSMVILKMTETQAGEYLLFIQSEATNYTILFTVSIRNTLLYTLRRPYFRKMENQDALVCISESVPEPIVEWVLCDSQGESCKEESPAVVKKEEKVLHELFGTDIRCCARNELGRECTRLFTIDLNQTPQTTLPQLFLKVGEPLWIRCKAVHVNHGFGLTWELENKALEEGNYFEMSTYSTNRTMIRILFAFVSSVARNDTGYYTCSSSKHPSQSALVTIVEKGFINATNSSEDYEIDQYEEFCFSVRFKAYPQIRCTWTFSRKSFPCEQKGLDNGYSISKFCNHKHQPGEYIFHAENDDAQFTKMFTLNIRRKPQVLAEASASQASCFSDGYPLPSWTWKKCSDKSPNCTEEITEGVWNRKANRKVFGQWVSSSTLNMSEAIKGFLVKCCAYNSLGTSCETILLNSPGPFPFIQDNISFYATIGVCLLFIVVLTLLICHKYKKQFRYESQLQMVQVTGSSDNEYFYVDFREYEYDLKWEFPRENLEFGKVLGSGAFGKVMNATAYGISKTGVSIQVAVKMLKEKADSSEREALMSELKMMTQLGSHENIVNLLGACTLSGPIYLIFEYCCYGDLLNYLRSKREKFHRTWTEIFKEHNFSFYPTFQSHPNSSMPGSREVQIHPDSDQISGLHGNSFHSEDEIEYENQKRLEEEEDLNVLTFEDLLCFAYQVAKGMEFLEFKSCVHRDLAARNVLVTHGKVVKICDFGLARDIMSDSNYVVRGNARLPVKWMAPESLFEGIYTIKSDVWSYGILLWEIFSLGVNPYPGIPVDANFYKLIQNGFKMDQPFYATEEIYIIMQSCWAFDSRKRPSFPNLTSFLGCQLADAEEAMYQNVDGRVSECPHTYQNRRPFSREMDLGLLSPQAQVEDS
Summary of the method: (§1)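 AlphaScreen read-out of tyrosine phosphorylation of a 30 nM biotinylated poly(Glu4-Tyr) substrate, captured on streptavidin donor and PY20 acceptor beads at room temperature. ATP for IC50 work was 100 μM with FLT3-ITD and 10 μM with FLT3-D835Y; reduced 580 nm proximity signal reflects kinase inhibition.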

FLT3-D835Y = target: T2, FLT3-D835Y (Homo sapiens, UniProt P36888, D835Y); assay: FLT3-D835Y biochemical kinase assay (AlphaScreen)
T2 construct: purchased Invitrogen PV3967
T2 sequence (P36888 27-993 D835Y): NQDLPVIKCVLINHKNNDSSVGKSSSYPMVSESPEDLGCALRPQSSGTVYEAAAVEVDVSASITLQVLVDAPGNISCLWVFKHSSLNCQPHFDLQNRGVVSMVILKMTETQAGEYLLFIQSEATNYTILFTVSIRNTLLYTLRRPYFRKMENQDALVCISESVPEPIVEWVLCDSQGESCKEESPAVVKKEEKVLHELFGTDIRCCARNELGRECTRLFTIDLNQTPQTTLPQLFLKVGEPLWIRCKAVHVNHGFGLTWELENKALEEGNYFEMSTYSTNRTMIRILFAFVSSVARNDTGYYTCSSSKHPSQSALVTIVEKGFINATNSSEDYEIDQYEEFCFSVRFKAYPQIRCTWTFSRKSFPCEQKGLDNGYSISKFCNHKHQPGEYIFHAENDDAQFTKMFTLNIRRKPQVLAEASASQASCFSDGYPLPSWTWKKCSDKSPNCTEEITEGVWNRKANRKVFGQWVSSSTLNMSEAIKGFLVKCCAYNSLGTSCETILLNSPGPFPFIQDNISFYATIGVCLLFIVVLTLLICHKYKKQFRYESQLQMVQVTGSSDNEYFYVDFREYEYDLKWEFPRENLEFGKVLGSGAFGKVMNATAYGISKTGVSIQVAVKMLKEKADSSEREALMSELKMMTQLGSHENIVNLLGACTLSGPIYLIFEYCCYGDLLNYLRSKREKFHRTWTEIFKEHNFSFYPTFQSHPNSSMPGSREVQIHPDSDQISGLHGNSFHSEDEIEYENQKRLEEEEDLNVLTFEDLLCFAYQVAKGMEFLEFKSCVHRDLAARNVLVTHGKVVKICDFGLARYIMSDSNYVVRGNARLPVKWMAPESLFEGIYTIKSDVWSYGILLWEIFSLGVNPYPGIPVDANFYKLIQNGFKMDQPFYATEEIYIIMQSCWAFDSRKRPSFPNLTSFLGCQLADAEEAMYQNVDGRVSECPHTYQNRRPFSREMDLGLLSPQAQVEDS
Summary of the method: as §1

SMILES	IC50 (FLT3-ITD)	IC50 (FLT3-D835Y)
CC(C)(C)n1cnc2ccc(-c3c[nH]c4ncc(-c5cnc(C6CC6)nc5)nc34)cc21 [P-342, 7-(3-tert-butylbenzimidazol-5-yl)-2-(2-cyclopropylpyrimidin-5-yl)-5H-pyrrolo[2,3-b]pyrazine]	0.0001 to 1 µM	0.0001 to 1 µM
CC(C)(C)n1cnc2ccc(-c3c[nH]c4ncc(-c5ccc(C6CC6)nc5)nc34)cc21 [P-353, 7-(3-tert-butylbenzimidazol-5-yl)-2-(6-cyclopropyl-3-pyridyl)-5H-pyrrolo[2,3-b]pyrazine]	0.0001 to 1 µM	0.0001 to 1 µM
CC(=O)Nc1cccc(-c2cnc3[nH]cc(-c4ccc5ncsc5c4)c3n2)c1 [P-159, N-[3-[7-(1,3-benzothiazol-6-yl)-5H-pyrrolo[2,3-b]pyrazin-2-yl]phenyl]acetamide]	0.0001 to 1 µM	0.0001 to 1 µM
COc1cc(-c2cnc3[nH]cc(-c4ccc5ncn(-c6ccc(F)cc6)c5c4)c3n2)ccn1 [P-206, 7-[3-(4-fluorophenyl)benzimidazol-5-yl]-2-(2-methoxy-4-pyridyl)-5H-pyrrolo[2,3-b]pyrazine]	0.0001 to 1 µM	0.0001 to 1 µM
CC(C)n1cnc2ccc(-c3c[nH]c4ncc(-c5cccc(NS(C)(=O)=O)c5)nc34)cc21 [P-080, N-[3-[7-(3-isopropylbenzimidazol-5-yl)-5H-pyrrolo[2,3-b]pyrazin-2-yl]phenyl]methanesulfonamide]	0.0001 to 1 µM	0.0001 to 1 µM
CC(C)(C)n1cnc2ccc(-c3c[nH]c4ncc(-c5cnc(C(F)(F)F)nc5)nc34)cc21 [P-343, 7-(3-tert-butylbenzimidazol-5-yl)-2-[2-(trifluoromethyl)pyrimidin-5-yl]-5H-pyrrolo[2,3-b]pyrazine]	0.0001 to 1 µM	0.0001 to 1 µM
COc1cc(-c2cnc3[nH]cc(-c4ccc5c(c4)N(CC(F)(F)F)CCO5)c3n2)ccn1 [P-188, 6-(2-(2-methoxypyridin-4-yl)-5H-pyrrolo[2,3-b]pyrazin-7-yl)-4-(2,2,2-trifluoroethyl)-3,4-dihydro-2H-benzo[b][1,4]oxazine]	0.0001 to 1 µM	0.0001 to 1 µM
O=S(=O)(Nc1cnc2[nH]cc(-c3ccc4ncn(C5CCCNC5)c4c3)c2c1)c1cccc(OC(F)(F)F)c1 (stereo not shown) [P-212, N-[3-[3-(3-piperidyl)benzimidazol-5-yl]-1H-pyrrolo[2,3-b]pyridin-5-yl]-3-(trifluoromethoxy)benzenesulfonamide]	0.0001 to 1 µM	0.0001 to 1 µM

The remaining lines, values ahead:

IC50 (FLT3-ITD)	IC50 (FLT3-D835Y)	SMILES
0.0001 to 1 µM	0.0001 to 1 µM	COc1cccc(-c2cnc3[nH]cc(-c4ccc5ncn(C)c5c4)c3n2)c1 [P-145, 2-(3-methoxyphenyl)-7-(3-methylbenzimidazol-5-yl)-5H-pyrrolo[2,3-b]pyrazine]
0.0001 to 1 µM	0.0001 to 1 µM	CC(C)(C)n1cnc2ccc(-c3c[nH]c4ncc(-c5ccc(F)c(C#N)c5)cc34)cc21 [P-207, 5-[3-(3-tert-butylbenzimidazol-5-yl)-1H-pyrrolo[2,3-b]pyridin-5-yl]-2-fluoro-benzonitrile]
0.0001 to 1 µM	0.0001 to 1 µM	COc1cc(-c2cnc3[nH]cc(-c4ccc5ncn(C)c5c4)c3n2)cc(OC)n1 [P-157, 2-(2,6-dimethoxy-4-pyridyl)-7-(3-methylbenzimidazol-5-yl)-5H-pyrrolo[2,3-b]pyrazine]
0.0001 to 1 µM	0.0001 to 1 µM	CC(C)N1CCOc2ccc(-c3c[nH]c4ncc(C5=CCN(C(=O)C6CC6)C5)nc34)cc21 [P-189, cyclopropyl-[3-[7-(4-isopropyl-2,3-dihydro-1,4-benzoxazin-6-yl)-5H-pyrrolo[2,3-b]pyrazin-2-yl]-2,5-dihydropyrrol-1-yl]methanone]
0.0001 to 1 µM	0.0001 to 1 µM	FC(F)(F)Oc1cccc(-c2cnc3[nH]cc(-c4ccc5ncn(C6CCCNC6)c5c4)c3c2)c1 (stereo not shown) [P-203, 1-(3-piperidyl)-6-[5-[3-(trifluoromethoxy)phenyl]-1H-pyrrolo[2,3-b]pyridin-3-yl]benzimidazole]
0.0001 to 1 µM	0.0001 to 1 µM	COc1cnc2[nH]cc(-c3cnc4ncn(Cc5ccccc5)c4c3)c2c1 [P-143, 1-benzyl-6-(5-methoxy-1H-pyrrolo[2,3-b]pyridin-3-yl)imidazo[4,5-b]pyridine]
